Measured values reported in ChEMBL document CHEMBL4130373, “Design, synthesis and biological evaluation of 4-anilinoquinoline derivatives as novel potent tubulin depolymerization agents” (Eur J Med Chem, 2017).
The source made the active and inactive calls. No cut-off for these calls is given here.

Assays:
MDA-MB-231 = assay: Antiproliferative activity against human MDA-MB-231 cells after 48 hrs by MTT assay; type: functional, cell-based; conditions: MDA-MB-231, 48 h
[1] = Solubility of the compound in physiological saline at 1 mg; type: physicochemical; conditions: buffer
HCT-8 = assay: Antiproliferative activity against human HCT8 cells after 48 hrs by MTT assay; type: functional, cell-based; conditions: HCT-8, 48 h
[2] = Resistance index, ratio of IC50 for human HCT8/V cells to IC50 for human HCT8 cells; type: functional
[3] = Antiproliferative activity against human HCT8/V cells after 48 hrs by MTT assay; type: functional, cell-based; conditions: HCT-8, 48 h
HCT-116 = assay: Antitumor activity against human HCT116 cells xenografted in Balb/c athymic nude mouse assessed as tumor growth inhibition at 100 mg/kg, iv administered once in every 7 days measured on day 18 post treatment relative to control; type: functional; conditions: HCT-116, iv, read-out: TGI
Mus musculus = assay: Toxicity in Balb/c athymic nude mouse xenografted with human HCT116 cells assessed as body weight loss at 100 mg/kg, iv administered once in every 7 days relative to control; type: organism-based; conditions: in vivo, 168 h
A549 = assay: Antiproliferative activity against human A549 cells after 48 hrs by MTT assay; type: functional, cell-based; conditions: A549, 48 h
A2780S [4] = assay: Antiproliferative activity against human A2780S cells after 48 hrs by MTT assay; type: functional, cell-based
MCF7 = assay: Antiproliferative activity against human MCF7 cells after 48 hrs by MTT assay; type: functional, cell-based; conditions: MCF7, 48 h
HepG2 = assay: Binding affinity to beta-tubulin colchicine binding site in human HepG2 cells assessed as reduction in EBI-beta-tubulin adduct formation at 5 uM preincubated for 2 hrs followed by EBI addition measured after 1.5 hrs by Western blot analysis; type: cell-based
L02 = assay: Antiproliferative activity against human LO2 cells after 48 hrs by MTT assay; type: cell-based; conditions: L02, 48 h
HEK293 = assay: Antiproliferative activity against HEK293 cells after 48 hrs by MTT assay; type: cell-based; conditions: Homo sapiens, HEK293, 48 h
A2780S [5] = assay: Induction of alpha-tubulin depolymerization in human A2780S cells at 100 nM after 24 hrs by DAPI staining based immunofluorescence microscopic method; type: cell-based
[6] = Resistance index, ratio of IC50 for human HCT8/T cells to IC50 for human HCT8 cells; type: functional
[7] = Resistance index, ratio of IC50 for human A2780T cells to IC50 for human A2780S cells; type: functional
A2780/Taxol = assay: Antiproliferative activity against human A2780T cells after 48 hrs by MTT assay; type: functional, cell-based
[8] = Antiproliferative activity against human HCT8/T cells after 48 hrs by MTT assay; type: functional, cell-based; conditions: HCT-8, 48 h

With `COc1ccc(N(C)c2cc(Cl)nc3ccccc23)cc1` the IC50 (MDA-MB-231) was > 500 nM and the solubility [1] was “Insoluble”.
For `CC[C@]1(O)C[C@@H]2CN(CCc3c([nH]c4ccccc34)[C@@](C(=O)OC)(c3cc4c(cc3OC)N(C)[C@H]3[C@@](O)(C(=O)OC)[C@H](OC(C)=O)[C@]5(CC)C=CCN6CC[C@]43[C@@H]65)C2)C1` [VINBLASTINE], the IC50 (HCT-8) was 20.2 nM, the “Ratio IC50” value [2] was 101.8 and the IC50 [3] was 2060 nM.
With `COc1ccc(N(C)c2cc(C)nc3ccccc23)cc1NC(C)=O` the IC50 (MDA-MB-231) was 9.1 nM and the solubility [1] was “Soluble”.
With `COc1ccc(N(C)c2ccnc3ccccc23)cc1N` the IC50 (MDA-MB-231) was > 500 nM and the solubility [1] was “Soluble”.
With `CCC(=O)Nc1cc(N(C)c2cc(C)nc3ccccc23)ccc1OC` the IC50 (MDA-MB-231) was 18.5 nM and the solubility [1] was “Soluble”.
For `COC(=O)C(=O)Nc1cc(N(C)c2cc(C)nc3ccccc23)ccc1OC`, the IC50 (MDA-MB-231) was > 500 nM and the solubility [1] was “Insoluble”.
In the case of `COc1ccc(N(C)c2cc(C)nc3ccccc23)cc1NC(=O)CNCCNc1ccccc1`, the IC50 (MDA-MB-231) is reported as 83.6 nM and the solubility [1] is reported as “Insoluble”.
In the case of `COc1ccc(N(C)c2cc(C)nc3ccccc23)cc1NC(=O)CCCCCl`, the IC50 (MDA-MB-231) is reported as 363 nM and the solubility [1] is reported as “Insoluble”.
In the case of `C=CC(=O)Nc1cc(N(C)c2cc(C)nc3ccccc23)ccc1OC`, the IC50 (MDA-MB-231) is reported as 43.4 nM and the solubility [1] is reported as “Soluble”.
With `COc1ccc(N(C)c2ccnc3ccccc23)cc1` the IC50 (MDA-MB-231) was > 500 nM and the solubility [1] was “Insoluble”.
In the case of `CSc1ccc(N(C)c2cc(C)nc3ccccc23)cc1N`, the IC50 (MDA-MB-231) is reported as 9.5 nM and the solubility [1] is reported as “Soluble”.
With `O=c1[nH]cc(F)c(=O)[nH]1` [FLUOROURACIL] the inhibition in vivo at 100 mg/kg (HCT-116) was 60.8% and the Activity (Mus musculus) was < 10%.
For `CCOC(=O)C(=O)Nc1cc(N(C)c2cc(C)nc3ccccc23)ccc1OC`, the IC50 (MDA-MB-231) was 443 nM and the solubility [1] was “Soluble”.
`COc1cc2c(c(OC)c1OC)-c1ccc(OC)c(=O)cc1[C@@H](NC(C)=O)CC2` [COLCHICINE] gave an IC50 (A549) of 32.7 nM, an IC50 (MDA-MB-231) of 38.2 nM and an IC50 (A2780S [4]) of 12.3 nM. For the same molecule, the IC50 (HCT-8) was 13.4 nM, the IC50 (MCF7) was 13.4 nM and the Activity (HepG2) was “Active”. The IC50 (L02) was 26.5 nM, the IC50 (HEK293) was 10.2 nM and the Activity (A2780S [5]) was “Active”.
For `COc1ccc(N(C)c2cc(C)nc3ccccc23)cc1NC(=O)CBr`, the IC50 (MDA-MB-231) was 87.2 nM and the solubility [1] was “Soluble”.
With `CC(=O)O[C@H]1C(=O)[C@@]2(C)[C@H]([C@H](OC(=O)c3ccccc3)[C@]3(O)C[C@H](OC(=O)[C@H](O)[C@@H](NC(=O)c4ccccc4)c4ccccc4)C(C)=C1C3(C)C)[C@]1(OC(C)=O)CO[C@@H]1C[C@@H]2O` [PACLITAXEL] the “Ratio IC50” value [6] was 567.4, the IC50 (A2780S [4]) was 12.3 nM and the “Ratio IC50” value [7] was 2042.3. It also gave an IC50 (A2780/Taxol) of 25.1 µM, an IC50 (HCT-8) of 17.4 nM and an IC50 [8] of 9.88 µM. For the same molecule, the Activity (A2780S [5]) was “inactive”.
